Source: patent US20250129334A1, “LINEAGE SPECIFICATION DURING STEM CELL TRANSITION” (Amniotics AB, priority 2021, published 2025)

System: HE cells
Test: Single-cell RNAseq of treated HE cells at day 2 of subculture
Format: cell-based, human
Method: Sorted HE, EHT and HSC-like cells as well magnetically selected (Miltenyi Biotec) cord blood CD34^+ cells were plated onto Matrigel (16 μg/cm^2, Corning)-coated 96-well flat bottom plates in HE medium (Ditadi, A. & Sturgeon, C. M. Directed differentiation of definitive hemogenic endothelium and hematopoietic progenitors from human pluripotent stem cells. Methods 101, 65-72 (2016)) with 1% penicillin-streptomycin and kept in a humidified incubator at 37° C., 5% CO2, 4% O2 overnight. The following day (day 0), wells were washed twice with PBS and fresh HE medium was added, together with UK5099 (10 μM) or DCA (3 mM), where indicated. On day 1 and 2 (as indicated), cells were washed twice with PBS 0.04% UltraPure BSA and collected after a 2-minute incubation at 37° C. with StemPro Accutase Cell Dissociation Reagent. Cells were spun down, resuspended in PBS 0.04% UltraPure BSA, counted (yield between 8,000-18,000 cells) and library preparation was conducted according to the Chromium Single Cell 3′ Reagent kit v3 instructions (10× Genomics). Sequencing was performed on a NOVASeq 6000 from Illumina with the run parameters (28-8-0-91) recommended by 10× Genomics with a final loading concentration of 300 pM of the pooled libraries. Human Umbilical Cord Blood samples were collected from Skine University Hospital (Lund and Malmo) and Helsingborg Hospital with informed consents according to guidelines approved by the regional ethical committee.
The data was processed and analyzed using Seurat v3.1.0, where cells were allowed to have up to 20% mitochondrial reads prior to log-normalization and finding the top 500 variable genes using the “vst” method. Cell cycle scores were calculated and the data was scaled regressing on mitochondrial content and the difference of the S and G2M score. Principal components were calculated prior to calculating a UMAP. Pseudotime trajectories describing two developmental routes were identified in our EHT dataset using Slingshot (Street, K. et al. Slingshot: cell lineage and pseudotime inference for single-cell transcriptomics. BMC Genomics 19,477 (2018)) along which the cells were ordered. The cells were then binned along each trajectory where the cell type composition of each bin was calculated as percentages. Cord blood CD34+ cells were mapped to our data and labeled using scCoGAPS (Stein-O'Brien, G. L. et al. Decomposing Cell Identity for Transfer Learning across 23 Cellular Measurements, Platforms, Tissues, and Species. Cell Syst 8, 395-411.e8 (2019)). CS13 data from Zeng et al. (Zeng, Y. et al. Tracing the first hematopoietic stem cell generation in human embryo by single-cell RNA sequencing. Cell Res 1-14 (2019)) was read and processed to make a UMAP from which the cells they name as “AEC” and “Hem” were identified. These 99 cells were mapped to our data and labeled using SCMAP59. Carnegie Stage 13 data from Zeng et al. was mapped to our EHT dataset using scCoGAPS where 10 patterns were identified, named according to their respective weights (as shown in Table 1) and then projected using projectR. […] The CS 13 dorsal aorta dataset from Zeng et al. was mapped onto our EHT dataset using scCoGAPS. The patterns resulting from this analysis were classified as the cell types described by Zeng et al.
Each cell was assigned to the group that achieved the highest weight. […]

O=C(O)C(Cl)Cl [DCA, dichloroacetate]
less treated HE cells in cluster 7 compared to the control (day 2, DCA 3 mM): 35%

N#CC(=Cc1cn(-c2ccccc2)c2ccccc12)C(=O)O [UK5099, 2-Cyano-3-(1-phenyl-1H-indol-3-yl)-2-propenoic acid]
LSD1, GFI1 and GFI1B expression (as compared to DCA-treated cells): higher levels
average expression levels of erythroid lineage genes (RYK, KLF3, TAL1, GATA2, ZFPM1, KLF1, NFE2, ANK1, HBQ1) (clusters 6 and 7): higher
percentage of cells in cluster 6 (day 2): constant between conditions
more treated HE cells in cluster 7 compared to the control (day 2, UK5099 10 μM): 38%
